Where a SMILES comes first, the peptide text is derived from it. Side-chain parts run from the residue outwards. [ ]: non-standard residue; d: D form. The star is where a group is joined. d2Nal(N,N-C(O)(CH2)4) = O=C1CCCCN1[C@H](Cc1ccc2ccccc2c1)C(=O)*; d2Nal(N,N-(CH2)3CO) = O=C1CCCN1[C@H](Cc1ccc2ccccc2c1)C(=O)*; Shikimoyl = O=C(C1=C[C@@H](O)[C@@H](O)[C@H](O)C1)*; dPhe(4-Cl) = N[C@H](Cc1ccc(Cl)cc1)C(=O)O; d(hCit) = NC(=O)NCCCC[C@@H](N)C(=O)O; Lys(iPr) = CC(C)NCCCC[C@H](N)C(=O)O; NMeY = CN[C@@H](Cc1ccc(O)cc1)C(=O)O; dCit = NC(=O)NCCC[C@@H](N)C(=O)O; hArg = N=C(N)NCCCC[C@H](N)C(=O)O; d3Pal = N[C@H](Cc1cccnc1)C(=O)O; Nicotinoyl = O=C(c1cccnc1)*

This assay has as its target T1, LHRH (Rattus norvegicus, UniProt P30969).
T1 construct: endogenous in cells
T1 sequence (P30969 1-327): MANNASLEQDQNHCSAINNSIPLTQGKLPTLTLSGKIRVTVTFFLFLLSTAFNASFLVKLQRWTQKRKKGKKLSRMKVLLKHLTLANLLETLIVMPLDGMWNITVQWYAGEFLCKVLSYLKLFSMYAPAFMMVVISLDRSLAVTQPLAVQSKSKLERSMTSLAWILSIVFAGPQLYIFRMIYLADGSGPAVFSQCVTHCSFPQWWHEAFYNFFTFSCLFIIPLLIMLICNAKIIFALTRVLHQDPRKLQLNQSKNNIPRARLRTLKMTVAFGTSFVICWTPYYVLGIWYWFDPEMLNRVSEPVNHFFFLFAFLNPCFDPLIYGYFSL
The assay can be described thus: in vitro test for LHRH antagonist potency (pA2). It is filed as cell-based. The conditions noted are these: negative logarithm of the antagonist concentration required to shift the response curve produced by the agonist leuprolide to two-fold higher concentration. The protocol: Representative compounds of the present invention were evaluated in an in vitro test for LHRH antagonist potency (pA2). The test employed the method detailed in F. Haviv, et al. J. Med. Chem., 32:2340-2344 (1989). The values of pA2 are the negative logarithms of the concentration of the particular antagonist test compound required to shift the response curve produced by the agonist leuprolide to two-fold higher concentration. (Leuprolide is disclosed and claimed in U.S. Pat. No. 4,005,063.) Typically pA2 values of 9.5 or greater are indicative of good LHRH antagonist potency, with values of 10.0 or greater being preferred.
Take `CC(C)C[C@H](NC(=O)[C@@H](CCCNC(N)=O)NC(=O)[C@H](Cc1ccc(O)cc1)N(C)C(=O)[C@H](CO)NC(=O)[C@@H](Cc1cccnc1)NC(=O)[C@@H](Cc1ccc(Cl)cc1)NC(=O)[C@@H](Cc1ccc2ccccc2c1)N1CCCC1=O)C(=O)N[C@@H](CCCNC(=N)N)C(=O)N1CCC[C@H]1C(=O)N[C@H](C)C(N)=O` [Example 1, 5LactD2Nal^1 -D4ClPhe^2 -D3Pal^3 -Ser^4 -NMeTyr^5 -DCit^6 -Leu^7 -Arg^8 -Pro^9 -DAla^10 NH2] ({d2Nal(N,N-(CH2)3CO)}-[dPhe(4-Cl)][d3Pal]S[NMeY][dCit]LRP[dA]-NH2): the Kb – broadly, the equilibrium dissociation constant of an antagonist, usually derived from a functional assay – is 8.13 pM.

Regarding `CC(C)C[C@H](NC(=O)[C@@H](CCCCNC(=O)C1=C[C@@H](O)[C@@H](O)[C@H](O)C1)NC(=O)[C@H](Cc1ccc(O)cc1)N(C)C(=O)[C@H](CO)NC(=O)[C@@H](Cc1cccnc1)NC(=O)[C@@H](Cc1ccc(Cl)cc1)NC(=O)[C@@H](Cc1ccc2ccccc2c1)N1CCCC1=O)C(=O)N[C@@H](CCCNC(=N)N)C(=O)N1CCC[C@H]1C(=O)N[C@H](C)C(N)=O` [Example 2, 5LactD2Nal^1 -D4ClPhe^2 -D3Pal^3 -Ser^4 -NMeTyr^5 -DLys(N-epsilon-Shik)^6 -Leu^7 -Arg^8 -Pro^9 -DAla^10 NH2] ({d2Nal(N,N-(CH2)3CO)}-[dPhe(4-Cl)][d3Pal]S[NMeY][dK](Shikimoyl)LRP[dA]-NH2), the Kb was 26.3 pM. The same measure for `CC(C)C[C@H](NC(=O)[C@@H](CCCCNC(=O)CNC(=O)C1=C[C@@H](O)[C@@H](O)[C@H](O)C1)NC(=O)[C@H](Cc1ccc(O)cc1)N(C)C(=O)[C@H](CO)NC(=O)[C@@H](Cc1cccnc1)NC(=O)[C@@H](Cc1ccc(Cl)cc1)NC(=O)[C@@H](Cc1ccc2ccccc2c1)N1CCCC1=O)C(=O)N[C@@H](CCCNC(=N)N)C(=O)N1CCC[C@H]1C(=O)N[C@H](C)C(N)=O` [Example 3, 5LactD2Nal^1 -D4ClPhe^2 -D3Pal^3 -Ser^4 -NMeTyr^5 -DLys(N-epsilon-Gly-Shik)^6 -Leu^7 -Arg^8 -Pro^9 -DAla^10 NH2] ({d2Nal(N,N-(CH2)3CO)}-[dPhe(4-Cl)][d3Pal]S[NMeY][dK]([Gly-Shikimoyl])LRP[dA]-NH2): 20.9 pM; for `CC(C)C[C@H](NC(=O)[C@@H](CCCCNC(=O)C1=C[C@@H](O)[C@@H](O)[C@H](O)C1)NC(=O)[C@H](Cc1ccc(O)cc1)N(C)C(=O)[C@H](CO)NC(=O)[C@@H](Cc1cccnc1)NC(=O)[C@@H](Cc1ccc(Cl)cc1)NC(=O)[C@@H](Cc1ccc2ccccc2c1)N1CCCC1=O)C(=O)N[C@@H](CCCCNC(=N)N)C(=O)N1CCC[C@H]1C(=O)N[C@H](C)C(N)=O` [Example 4, 5LactD2Nal^1 -D4ClPhe^2 -D3Pal^3 -Ser^4 -NMeTyr^5 -DLys(N-epsilon-Shik)^6 -Leu^7 -Harg^8 -Pro^9 -DAla^10 NH2] ({d2Nal(N,N-(CH2)3CO)}-[dPhe(4-Cl)][d3Pal]S[NMeY][dK](Shikimoyl)L[hArg]P[dA]-NH2): 6.92 pM; for `CC(C)C[C@H](NC(=O)[C@@H](CCCCNC(=O)CNC(=O)C1=C[C@@H](O)[C@@H](O)[C@H](O)C1)NC(=O)[C@H](Cc1ccc(O)cc1)N(C)C(=O)[C@H](CO)NC(=O)[C@@H](Cc1cccnc1)NC(=O)[C@@H](Cc1ccc(Cl)cc1)NC(=O)[C@@H](Cc1ccc2ccccc2c1)N1CCCC1=O)C(=O)N[C@@H](CCCCNC(=N)N)C(=O)N1CCC[C@H]1C(=O)N[C@H](C)C(N)=O` [Example 5, 5LactD2Nal^1 -D4ClPhe^2 -D3Pal^3 -Ser^4 -NMeTyr^5 -DLys(N-epsilon-Gly-Shik)^6 -Leu^7 -Harg^8 -Pro^9 -DAla^10 NH2] ({d2Nal(N,N-(CH2)3CO)}-[dPhe(4-Cl)][d3Pal]S[NMeY][dK]([Gly-Shikimoyl])L[hArg]P[dA]-NH2): 6.46 pM. The same measure for `CC(C)C[C@H](NC(=O)[C@@H](CCCCNC(=O)c1cccnc1)NC(=O)[C@H](Cc1ccc(O)cc1)N(C)C(=O)[C@H](CO)NC(=O)[C@@H](Cc1cccnc1)NC(=O)[C@@H](Cc1ccc(Cl)cc1)NC(=O)[C@@H](Cc1ccc2ccccc2c1)N1CCCC1=O)C(=O)N[C@@H](CCCCNC(C)C)C(=O)N1CCC[C@H]1C(=O)N[C@H](C)C(N)=O` [Example 7, 5LactD2Nal^1 -D4ClPhe^2 -D3Pal^3 -Ser^4 -NMeTyr^5 -DLys(N-epsilon-Nic)^6 -Leu^7 -Lys(N-epsilon-Isopropyl)^8 -Pro^9 -DAla^10 NH2] ({d2Nal(N,N-(CH2)3CO)}-[dPhe(4-Cl)][d3Pal]S[NMeY][dK](Nicotinoyl)L[Lys(iPr)]P[dA]-NH2): 37.2 pM. Then `CC(C)C[C@H](NC(=O)[C@@H](CCCCNC(=O)C1=C[C@@H](O)[C@@H](O)[C@H](O)C1)NC(=O)[C@H](Cc1ccc(O)cc1)N(C)C(=O)[C@H](CO)NC(=O)[C@@H](Cc1cccnc1)NC(=O)[C@@H](Cc1ccc(Cl)cc1)NC(=O)[C@@H](Cc1ccc2ccccc2c1)N1CCCCC1=O)C(=O)N[C@@H](CCCNC(=N)N)C(=O)N1CCC[C@H]1C(=O)N[C@H](C)C(N)=O` [Example 8, 6LactD2Nal^1 -D4ClPhe^2 -D3Pal^3 -Ser^4 -NMeTyr^5 -DLys(N-epsilon-Shik)^6 -Leu^7 -Arg^8 -Pro^9 -DAla^10 NH2] ({d2Nal(N,N-C(O)(CH2)4)}-[dPhe(4-Cl)][d3Pal]S[NMeY][dK](Shikimoyl)LRP[dA]-NH2), with 12.9 pM. Take `CC(C)C[C@H](NC(=O)[C@@H](CCCCNC(=O)CNC(=O)C1=C[C@@H](O)[C@@H](O)[C@H](O)C1)NC(=O)[C@H](Cc1ccc(O)cc1)N(C)C(=O)[C@H](CO)NC(=O)[C@@H](Cc1cccnc1)NC(=O)[C@@H](Cc1ccc(Cl)cc1)NC(=O)[C@@H](Cc1ccc2ccccc2c1)N1CCCCC1=O)C(=O)N[C@@H](CCCNC(=N)N)C(=O)N1CCC[C@H]1C(=O)N[C@H](C)C(N)=O` [Example 9, 6LactD2Nal^1 -D4ClPhe^2 -D3Pal^3 -Ser^4 -NMeTyr^5 -DLys(N-epsilon-Gly-Shik)^6 -Leu^7 -Arg^8 -Pro^9 -DAla^10 NH2] ({d2Nal(N,N-C(O)(CH2)4)}-[dPhe(4-Cl)][d3Pal]S[NMeY][dK]([Gly-Shikimoyl])LRP[dA]-NH2): the Kb was 35.5 pM. Turning to `CC(C)C[C@H](NC(=O)[C@@H](CCCCNC(=O)C1=C[C@@H](O)[C@@H](O)[C@H](O)C1)NC(=O)[C@H](Cc1ccc(O)cc1)N(C)C(=O)[C@H](CO)NC(=O)[C@@H](Cc1cccnc1)NC(=O)[C@@H](Cc1ccc(Cl)cc1)NC(=O)[C@@H](Cc1ccc2ccccc2c1)N1CCCCC1=O)C(=O)N[C@@H](CCCCNC(=N)N)C(=O)N1CCC[C@H]1C(=O)N[C@H](C)C(N)=O` [Example 10, 6LactD2Nal^1 -D4ClPhe^2 -D3Pal^3 -Ser^4 -NMeTyr^5 -DLys(N-epsilon-Shik)^6 -Leu^7 -Harg^8 -Pro^9 -DAla^10 NH2] ({d2Nal(N,N-C(O)(CH2)4)}-[dPhe(4-Cl)][d3Pal]S[NMeY][dK](Shikimoyl)L[hArg]P[dA]-NH2), the Kb was 20.9 pM. Then `CC(C)C[C@H](NC(=O)[C@@H](CCCCNC(=O)CNC(=O)C1=C[C@@H](O)[C@@H](O)[C@H](O)C1)NC(=O)[C@H](Cc1ccc(O)cc1)N(C)C(=O)[C@H](CO)NC(=O)[C@@H](Cc1cccnc1)NC(=O)[C@@H](Cc1ccc(Cl)cc1)NC(=O)[C@@H](Cc1ccc2ccccc2c1)N1CCCCC1=O)C(=O)N[C@@H](CCCCNC(=N)N)C(=O)N1CCC[C@H]1C(=O)N[C@H](C)C(N)=O` [Example 11, 6LactD2Nal^1 -D4ClPhe^2 -D3Pal^3 -Ser^4 -NMeTyr^5 -DLys(N-epsilon-Gly-Shik)^6 -Leu^7 -Harg^8 -Pro^9 -DAla^10 NH2] ({d2Nal(N,N-C(O)(CH2)4)}-[dPhe(4-Cl)][d3Pal]S[NMeY][dK]([Gly-Shikimoyl])L[hArg]P[dA]-NH2), with 20.9 pM; and `CC(C)C[C@H](NC(=O)[C@@H](CCCCNC(N)=O)NC(=O)[C@H](Cc1ccc(O)cc1)NC(=O)[C@H](CO)NC(=O)[C@@H](Cc1cccnc1)NC(=O)[C@@H](Cc1ccc(Cl)cc1)NC(=O)[C@@H](Cc1ccc2ccccc2c1)N1CCCC1=O)C(=O)N[C@@H](CCCCNC(C)C)C(=O)N1CCC[C@H]1C(=O)N[C@H](C)C(N)=O` [Example 12, 5LactD2Nal^1 -D4ClPhe^2 -D3Pal^3 -Ser^4 -Tyr^5 -DHcit^6 -Leu^7 -Lys(isp)^8 -Pro^9 -DAla^10NH2] ({d2Nal(N,N-(CH2)3CO)}-[dPhe(4-Cl)][d3Pal]SY[d(hCit)]L[Lys(iPr)]P[dA]-NH2), with 17.8 pM; and `CC(C)C[C@H](NC(=O)[C@@H](CCCCNC(=O)c1cccnc1)NC(=O)[C@H](Cc1ccc(O)cc1)N(C)C(=O)[C@H](CO)NC(=O)[C@@H](Cc1cccnc1)NC(=O)[C@@H](Cc1ccc(Cl)cc1)NC(=O)[C@@H](Cc1ccc2ccccc2c1)N1CCCCC1=O)C(=O)N[C@@H](CCCCNC(C)C)C(=O)N1CCC[C@H]1C(=O)N[C@H](C)C(N)=O` [Example 13, 6LactD2Nal^1 -D4ClPhe^2 -D3Pal^3 -Ser^4 -NMeTyr^5 -DLys(N-epsilon-Nic)^6 -Leu^7 -Lys(N-epsilon-Isopropyl)^8 -Pro^9 -DAla^10 NH2] ({d2Nal(N,N-C(O)(CH2)4)}-[dPhe(4-Cl)][d3Pal]S[NMeY][dK](Nicotinoyl)L[Lys(iPr)]P[dA]-NH2), with 17.8 pM.

Source of the values: patent US5516759A, “LHRH antagonists having lactam groups at the N-terminus” (TAP Holdings Inc., priority 1994, dated 1996).
